In patent US20260345792A1, “PROTACs AND HyT-PD MOLECULES FOR TARGETED PROTEIN DEGRADATION OF DCAF15 AND THEIR USE IN THE TREATMENT OF AMYLOIDOSIS” (KRÆFTENS BEKÆMPELSE, priority 2023, published 2026):
Where a SMILES comes first, the peptide text is derived from it. The star is where a group is joined. Cbz = O=C(OCc1ccccc1)*

What was measured:
[1] = tested on: HCT116 cells; assay: Clearance of protein aggregates: puromycin with Bafilomycin or MG132; format: cell-based; settings: with 5 μg/ml puromycin 4 h; 200 nM Bafilomycin or 5 μM MG132
Description: Cells were fixed and stained for ubiquitin and p62. A representative experiment is shown (n=3).
HCT116 cells were treated with 5 μg/ml puromycin for 4 h alone or in combination with 200 nM Bafilomycin-1 or 5 μM MG132. Cells were fixed and stained for ubiquitin and p62. A representative experiment is shown (n=3) (see FIG. 3A). The double positive puncta per cell was quantified (see FIG. 3B).

[2] = tested on: HCT116 cells; assay: Proliferation (confluency) and clonogenic survival after puromycin, by DCAF15 genotype; format: cell-based; settings: 5 μg/ml puromycin 4 h
Description: Confluency was recorded with imaging every 4 h. Representative experiments with technical triplicates are shown (n=3).
HCT116 cells were treated with 5 μg/ml puromycin for 4 h or left untreated before being released into normal growth media for 72 h. Confluency was recorded with imaging every 4 h, representative experiments with technical triplicates (n=3) are shown (see FIG. 4A.). HCT116 cells were treated with 5 μg/ml puromycin for 4 h before release into full media or left untreated for 7 days before fixation and crystal violet staining (see FIG. 4B.). Quantification of FIG. 4B as integrated density per well (see FIG. 4C).

[3] = tested on: HCT116 cells; BE2C cells; assay: Ubiquitin and p62 co-stained aggregates per cell after puromycin, by DCAF15 genotype; format: cell-based; settings: 5 μg/ml puromycin, 4 h; DCAF15−/− vs WT and reconstituted cell lines
Description: Cells were stained for ubiquitinated proteins and p62. Separate and merged channels from a representative experiment are shown (n>3).
HCT116 cells with indicated genotypes were treated with 5 μg/ml puromycin for 4 h or left untreated (NT) before fixation. Cells were stained for ubiquitinated proteins and p62. Separate and merged channels from a representative experiment are shown (n>3) (see FIG. 1A). The number of ubiquitin and p62 co-stained aggregates per cell were quantified (see FIG. 1B.).
BE2C cells with indicated genotypes were treated and analysed as above (n=3). Separate and merged channels from a representative experiment are shown (n>3) (see FIG. 1C). The number of ubiquitin and p62 co-stained aggregates per cell were quantified (see FIG. 1D.).
Cell lines: WT (wild-type), DCAF15−/− (CRISPR-mediated stable DCAF15−/− knock-out cells), DCAF15−/−+WT 3xF (DCAF15−/− cells reconstituted with WT DCAF15 with 3×flag-tag).

[4] = tested on: human cancer cell lines; settings: cited from earlier work
[5] = tested on: DCAF15; settings: Han et al., 2017 and WO 2022/169755; cited from earlier work

SMILES | aggregate numbers in WT and reconstituted cell lines [1] | re-appearance of aggregates in DCAF15−/− cells [1] | ligand for DCAF15 [5] | other results
CO/C1=C\C(C)=C\[C@@H](C)[C@@H](O)[C@@H](C)C/C(C)=C/C=C/[C@H](OC)[C@@H]([C@@H](C)[C@@H](O)[C@H](C)[C@@]2(O)C[C@@H](O)[C@H](C)[C@@H](C(C)C)O2)OC1=O [Bafilomycin A1] | enhance aggregate numbers in WT and reconstituted cell lines | we do not detect any re-appearance of aggregates in DCAF15−/− cells after treatments | – | –
CC(C)C[C@@H](C=O)NC(=O)[C@H](CC(C)C)NC(=O)[C@H](CC(C)C)NC(=O)OCc1ccccc1 [MG132] (Cbz-Leu-Leu-Leu-aldehyde) | enhance aggregate numbers in WT and reconstituted cell lines | we do not detect any re-appearance of aggregates in DCAF15−/− cells after treatments | – | –
COc1ccc(C[C@H](N)C(=O)N[C@H]2[C@@H](O)[C@H](n3cnc4c(N(C)C)ncnc43)O[C@@H]2CO)cc1 [Puromycin, puromycin] | – | – | – | clonogenic survival, sensitivity of DCAF15−/− cells ([2]; 7 days, crystal violet (FIGS. 4B and 4C)): insensitivity of DCAF15−/− cells to puromycin-induced toxicity; proliferation of DCAF15−/− cells ([2]; release for 72 h (FIG. 4A)): DCAF15−/− cells remain undeterred by puromycin treatment; proliferation rates in WT and reconstituted cell lines ([2]; release for 72 h (FIG. 4A)): significantly reduced proliferation rates; protein aggregation (co-localization of ubiquitin and p62) [3]: significant reduction of aggregates in DCAF15−/− cells relative to WT and reconstituted cell lines
NS(=O)(=O)c1ccc(S(=O)(=O)Nc2cccc3c(Cl)c[nH]c23)cc1 [indisulam] | – | – | act as ligands for DCAF15 | inhibition of proliferation [4]: inhibits the proliferation of certain human cancer cell lines
O=C(NS(=O)(=O)c1ccc(Br)s1)c1ccc(Cl)cc1Cl [tasisulam] | – | – | act as ligands for DCAF15 | –
